In patent publication US7786112B2, “Inhibitors of cyclin-dependent kinases, compositions and uses related thereto” (Agennix USA Inc., priority 2003, dated 2010):

What was measured:
HCT-116 cells [1] = assay: Clonogenic survival assay; assay type: cell-based, human; conditions: HCT-116 clonogenic time-course, at 100 nM
Experimental: This assay was used to determine the concentration of a compound that results irreversible loss of viability after a specified period of exposure. Essentially, cells are exposed to compound for a period of 1, 2 or 5 days, and are then transferred to compound-free growth medium. After continued incubation in the compound-free medium for a number of days, the number of colonies recovered is counted as an estimate of the number of surviving cells.
Media (RPMI-1640, 10% FCS, pen/strep) was pre-warmed to 37° C. in a water bath. Cells were incubated and grown at 37° C., 5% CO2. Cells were recovered by trypsinization from sub-confluent plates and counted using a hemocytometer. 1×10^4 cells were plated in 25 mls of media in a 15 cm tissue culture dish. 14 plates were set up for each test compound, and were incubated overnight at 37° C. The compound was diluted into media at 7 concentrations and the media on the cells was replaced with that containing the test compound. Two plates were set up for each concentration of the compound to be tested, as well as two control plates without compound. […] Colonies were stained with crystal violet solution (0.4% crystal violet, 20% ethanol) for 5 minutes, washed twice with distilled water, and counted.

HCT-116 cells [2] = assay: Cell cycle analysis with propidium iodide (FACS); assay type: cell-based, human; conditions: HCT-116, PI FACS
Experimental: The percentage of cells in the G1, S and G2/M phases of the cell cycle was determined by staining DNA with propidium iodide and quantifying the number of cells with a 2N or 4N DNA complement by flow cytometry. Alterations in the distribution of cells across the cell cycle in response to exposure to the Cdk inhibitors was evaluated in this manner.
3 sets of HCT-116 cells (100,000 cells/set) were cultured in the presence of a test compound in T-25 flasks according to Table 1 below. Analysis was performed at 24, 48 and 72 hours. Adherent cells were collected by trypsinization, combined with floating cells in Falcon 12×75 flow cytometric tubes, and harvested by centrifugation. The media was decanted from the cell pellet, 100 μl of PI stain was added and the cells were incubated at 37° C. for 20-25 minutes. The cell count was preferably no greater than 2×10^6-4×10^6/ml. An equal volume (100 μl) of PI salt was then added to the cells, which were then incubated at 4° C. for 1-2 hours. The stained cells were analyzed on a Becton Dickinson FACScan flow cytometer. Samples were protected from light.

HCT-116 = assay: Calcein AM viability assay, HCT-116; assay type: cell-based; conditions: Homo sapiens, HCT-116, non-protein adjusted, Table 6
Experimental: The potency of Cdk inhibitors, as measured by loss of cellular viability, was determined with the Calcein AM assay (Molecular Probes). Calcein AM is a substrate of intracellular esterases, which is cleaved only in viable cells to generate a fluorescent product that can be quantified with a fluorescent plate reader. The fluorescent signal is proportional to the number of viable cells, and thus loss of signal in response to the exposure of cells to Cdk inhibitors correlates with a loss of viability. This assay can distinguish cell cycle arrest, in which cells may still by viable, from loss of viability and is thus well suited for the evaluation of Cdk inhibitors. A compound that is a potent cytotoxic, may cause significant loss of cell viability in such assay.
Cellular IC50's were determined in the human colorectal carcinoma cell line, HCT-116, and the normal human fibroblast, IMR90. Protein adjusted IC50's were also determined in HCT-116.
HCT-116 or IMR90 cells were recovered from sub-confluent plates by trypsinization and 1,000 or 4,000 cells, respectively, were plated in 24-well dishes and incubated overnight at 37° C., 5% CO2. HCT-116 cells were cultured in RPMI-1640, 10% FCS, and IMR90 cells were cultured in Minimum Essential Medium-alpha, 10% FCS. After overnight incubation to allow adherence, the media was aspirated from each well and replaced with media containing a test compound at a concentration from 0 to 250 nM, spanning a total of 7 doses. The plates were returned to the incubator and cultured for an additional 72 hours (3 days). […] After 72-hours incubation with the test compound, the cells were washed twice with 1×PBS, taking special care to remove all residual buffer.
A 5 μM Calcein AM solution was prepared by dissolving a 50 μg aliquot of Calcein (Molecular Probes catalog # C3100) in 50 μl DMSO. After the Calcein had completely dissolved (10 minutes at room temperature), it was diluted into 10 ml PBS. Calcein/PBS (0.5 ml) was added to each well. The plates were incubated for 75 minutes at 37° C. (protected from light) and the fluorescent signal was read on a fluorescent plate reader (excitation 485/20 and emission 530/25).

Cdk4/cyclin D1 = biological target: T1, Cdk4/cyclin D1 (Homo sapiens, UniProt P11802); assay: Cdk4/cyclin D1 kinase assay (GST-Rb, glutathione-sepharose capture); assay type: biochemical; conditions: Table 6
T1 construct: made in house; host or cells: Sf9 insect cells
T1 sequence (P11802 whole entry, species assumed): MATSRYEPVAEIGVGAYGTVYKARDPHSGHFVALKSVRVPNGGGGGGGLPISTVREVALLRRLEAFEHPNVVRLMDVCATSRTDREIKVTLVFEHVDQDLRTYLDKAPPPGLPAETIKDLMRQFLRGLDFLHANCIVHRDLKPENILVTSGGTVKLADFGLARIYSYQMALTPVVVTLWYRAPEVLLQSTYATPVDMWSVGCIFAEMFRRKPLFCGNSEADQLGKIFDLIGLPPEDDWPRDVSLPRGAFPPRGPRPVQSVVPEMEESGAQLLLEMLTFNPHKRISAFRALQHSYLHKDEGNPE
T1 sequence (P24385 whole entry partner, species assumed): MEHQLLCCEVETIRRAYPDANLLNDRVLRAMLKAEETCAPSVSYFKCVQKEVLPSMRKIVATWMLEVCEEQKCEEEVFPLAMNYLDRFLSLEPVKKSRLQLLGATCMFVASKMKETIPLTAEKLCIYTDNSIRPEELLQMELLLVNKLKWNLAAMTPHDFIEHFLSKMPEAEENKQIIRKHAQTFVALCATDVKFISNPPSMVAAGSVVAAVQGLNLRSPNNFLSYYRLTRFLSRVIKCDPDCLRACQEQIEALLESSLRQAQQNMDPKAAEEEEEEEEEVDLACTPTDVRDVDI
Source text: (§1) Enzymes: Cdc2/cyclin B was obtained from commercial sources. Cdk2/his-cyclin Eshort was expressed in Sf9 cells. Cdk2/cyclin A, cdk4/cyclin D1, and cdk6/cyclin D2 were expressed in Sf9 cells. Protein kinase A (catalytic subunit, from bovine heart) and protein kinase C (mixed isozymes from rat brain) were obtained from commercial sources.
(§2) Substrates: Histone H1 was from commercial sources. GST-Rb is glutathione-S-transferase fused to the N-terminal of residues 379-928 of the Rb protein.
Cdk2/cyclin E, Cdk2/cyclin A, Cdk4/cyclin D1, and Cdk6/cyclin D2 activity was determined using a glutathione-sepharose capture assay. […] After washing the retained beads five time with phosphate-buffered saline containing 0.3% (w/v) Tween-20, the amount of ^33P incorporated was determined by scintillation counting after adding 100 μL scintillant. Relative activity was determined by dividing the amount of radioactivity incorporated in the presence of compound by the amount of radioactivity incorporated in a control experiment containing DMSO alone but no compound. The background radioactivity, determined in an experiment containing 50 mM disodium ethylenediamine tetraacetate in place of compound, was subtracted from all results before calculations.

Cdc2/cyclin B = biological target: T2, Cdc2/cyclin B (Homo sapiens, UniProt P06493); assay: Cdc2/cyclin B kinase assay (Histone H1, TCA precipitation); assay type: biochemical; conditions: Table 6
T2 construct: purchased
T2 sequence (P06493 whole entry, species assumed): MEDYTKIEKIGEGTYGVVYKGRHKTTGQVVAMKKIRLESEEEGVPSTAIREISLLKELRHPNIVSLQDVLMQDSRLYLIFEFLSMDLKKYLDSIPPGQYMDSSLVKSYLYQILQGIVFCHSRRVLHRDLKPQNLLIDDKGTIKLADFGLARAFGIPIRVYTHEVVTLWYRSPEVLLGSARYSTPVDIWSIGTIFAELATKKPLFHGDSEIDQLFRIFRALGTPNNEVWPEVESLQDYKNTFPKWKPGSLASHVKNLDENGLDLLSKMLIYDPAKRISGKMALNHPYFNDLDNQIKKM
T2 sequence (P14635 whole entry partner, species assumed): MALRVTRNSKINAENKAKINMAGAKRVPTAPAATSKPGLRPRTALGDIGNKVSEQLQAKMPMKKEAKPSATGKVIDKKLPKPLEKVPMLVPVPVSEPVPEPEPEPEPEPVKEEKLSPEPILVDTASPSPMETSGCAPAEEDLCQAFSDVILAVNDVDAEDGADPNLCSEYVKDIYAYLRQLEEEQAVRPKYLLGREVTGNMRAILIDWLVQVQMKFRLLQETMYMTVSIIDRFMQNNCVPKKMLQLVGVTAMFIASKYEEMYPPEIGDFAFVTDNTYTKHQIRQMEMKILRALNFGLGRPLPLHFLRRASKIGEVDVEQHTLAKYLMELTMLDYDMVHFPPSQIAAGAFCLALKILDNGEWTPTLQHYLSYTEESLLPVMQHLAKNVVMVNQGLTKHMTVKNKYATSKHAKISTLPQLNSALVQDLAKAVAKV
Source text: as §1, §2
Assays: Cdc2/cyclinB activity was determined by measuring incorporation of radio-activity from adenosine [γ-^32P]triphosphate into Histone H1 using a TCA precipitation assay. Cdc2/cyclin B kinase and Histone H1 were obtained from commercial sources. […] The filter was washed ten times with 25% (w/v) trichloroacetic acid, and the amount of incorporated ^32P was determined by scintillation counting after adding 100 μL scintillant (Microscint 20, Packard Instruments). Relative activity was determined by dividing the amount of radioactivity incorporated in the presence of compound by the amount of radioactivity incorporated in a control experiment containing DMSO alone but no compound. The background radioactivity, determined in an experiment containing 50 mM EDTA in place of compound, was subtracted from all results before calculations. […]

[3] = biological target: protein kinase C (mixed isozymes from rat brain); assay: Protein kinase C assay (Histone H1, TCA precipitation); assay type: biochemical; conditions: Table 5; read-out: PKC IC50
Experimental: as §1
Protein kinase C and protein kinase A were assayed using a TCA precipitation assay with Histone H1 as a substrate. For protein kinase A, the final assay contained 50 mM Tris, 10 mM MgCl2, 1 mM dithiothreitol, pH 7.5, 12 μM adenosine triphosphate, 10% (v/v) dimethylsulfoxide (from compounds), 20 μg Histone H1, 2 μCi [γ-^32P] adenosine triphosphate, 0.2 U protein kinase A in a 100 μL assay. A protein kinase C assay contained 50 mM Tris, 10 mM MgCl2, 1 mM dithiothreitol, 0.8 mM CaCl2, pH 7.5, 5 μM adenosine triphosphate, 10% (v/v) dimethylsulfoxide (from compounds), 20 μg Histone H1, 2 μCi [γ-^32P] adenosine triphosphate, 0.01 U protein kinase C in a 50 μL assay. The assays were started by the addition of enzyme, allowed to react for 10 min at 30° C., and stopped by adding 0.4 volumes of 237 mM disodium ethylenediamine tetraacetate, 105 mM adenosine triphosphate, pH 8.0. […] The filters were washed ten times with 25% (w/v) trichloroacetic acid, and the amount of incorporated [^32P]phosphate was determined by adding 100 μl Microscint and scintillation counting.

`COCCN1CCN(Cc2ccc(-c3[nH]nc4c3C(=O)c3c(NC(=O)NN5CCOCC5)cccc3-4)cc2)CC1.Cl.Cl` [Compound B16, N-[3-(4-{[4-(2-methoxyethyl)piperazinyl]methyl}phenyl)-4-oxoindeno[2,3-d]pyrazol-5-yl](morpholin-4-ylamino)carboxamide dihydrochloride] was tested. Which “Time within which IC50 is reached” value (HCT-116 cells [1]) did it give?
Its value is 30 to 60 min.

And the “Effect on cell cycle distribution” value (HCT-116 cells [2])?
The value was “Analogous results”.

With `CC(C)N1CCN(C(=O)COc2ccc(-c3[nH]nc4c3C(=O)c3c(NC(=O)NN5CCOCC5)cccc3-4)cc2)CC1.Cl` [Compound A37] as the compound, how does the “Effect on cell cycle distribution” value (HCT-116 cells [2]) read?
The value was “terminally arrested in G1 and G2, with evidence of apoptosis and endo-reduplication”.

How did the IC50 (HCT-116) turn out when `CC(C)c1nn(-c2c(Cl)cc(Cl)cc2Cl)c2nc(Cc3ccc(NS(=O)(=O)CCCN4CCN(C(C)C)CC4)cc3)[nH]c(=O)c12` [Compound A39] was run?
Its IC50 is under 100 nM.

`CC(C)c1nn(-c2c(Cl)cccc2Cl)c2nc(Cc3ccc(OCCOC(=O)[C@@H](N)C(C)C)cc3)[nH]c(=O)c12` [Compound A60] was tested. Which IC50 (Cdk4/cyclin D1) did it give?
The IC50 was under 10000 nM.

What about the IC50 (Cdc2/cyclin B) of the same compound?
The IC50 was under 1000 nM.

How did the IC50 (HCT-116) turn out when `CC(C)c1nn(-c2c(Cl)cc(Cl)cc2Cl)c2nc(Cc3ccc(NS(=O)(=O)CCCN4CCCC4)cc3)[nH]c(=O)c12` [Compound A38] was run?
The IC50 was under 100 nM.

For `Cc1nc(Cc2nc3c(c(C(C)C)nn3-c3c(Cl)cccc3Cl)c(=O)[nH]2)cs1` [Compound A58], which IC50 (HCT-116) is on record?
Its IC50 is under 100 nM.

With `COc1ccc(Cc2nc3c(c(C(C)C)nn3-c3c(Cl)cccc3Cl)c(=O)[nH]2)cc1` [Compound A67] as the compound, how does the IC50 (HCT-116) read?
The IC50 was under 100 nM.

For `CC(C)c1nn(-c2c(Cl)cccc2Cl)c2nc(Cc3ccc(O)c(CN4CCN(C(C)C)CC4)c3)[nH]c(=O)c12` [Compound C], which IC50 [3] is on record?
The IC50 was over 10000 nM.

For `CC(C)c1nn(-c2c(Cl)cccc2Cl)c2nc(Cc3ccc(OCCO)cc3)[nH]c(=O)c12` [Compound A59], which IC50 (HCT-116) is on record?
Its IC50 is under 100 nM.

For `CC(C)N1CCN(CCOc2ccc(-c3[nH]nc4c3C(=O)c3c(NC(=O)NN5CCOCC5)cccc3-4)cc2)CC1` [E], which IC50 [3] is on record?
Its IC50 is under 10000 nM.

How did the IC50 (HCT-116) turn out when `CC(C)c1nn(-c2c(Cl)cc(Cl)cc2Cl)c2nc(Cc3ccc(OCCO)cc3)[nH]c(=O)c12` [Compound A61] was run?
Its IC50 is under 100 nM.
